In patent US12616681B2, “Compositions and methods for treating renal injury” (priority 2019, dated 2026):

Columns and labels:
[1] = test system: endogenous PGE2 levels in kidney tissue; test: Renal PGE2 levels after intraperitoneal injection in mice (Example 1); assay type: in vivo
Method: […] Protein concentrations of supernatant were determined by BCA assay (ThermoFisher Scientific, Rockford, IL). The PGE2 level was measured using a PGE2 ELISA kit (R&D Systems, Minneapolis, MN) in triplicate. PGE2 levels were expressed as nanograms of PGE2 per milligram of protein. Renal function was assessed by determining the serum levels of blood urea nitrogen (BUN; Abcam), serum creatinine (Agilent 6410 LC-MS/MS, Agilent, Santa Clara, CA), lipocalin-2 (R&D Systems), and kidney injury molecule-1 (KIM-1; R&D Systems) after reperfusion for 24 h. Measurement of serum creatinine was by HPLC. Serum creatinine was assessed using an Agilent 6410 LC-MS/MS system coupled with an Agilent 1200 series HPLC system (Agilent). The sample preparation for serum creatinine was that 50 μL of serum samples were mixed with 100 μL of acetonitrile that contained creatinine-d3 as an internal standard (5 μg/mL). The mixture was centrifuged at 13,000 rpm for 10 min after vigorous vortex, and 1 μL of supernatant was then injected into the LC-MS/MS system. The chromatography separation was performed on a Hypersil GOLD C18 column (150×2.1 mm, 3 m, Thermo Scientific) using a mobile phase of 0.1% formic acid solution and acetonitrile [70:30 (vol/vol)]. The flow rate was 0.2 mL/min. […] The multiple-reaction monitoring mode using specific precursor/production transition was used for quantification. […]

[2] = test system: mice with ischemic AKI (bilateral renal IRI); test: Renal IRI model: cAMP, AMP and adenosine levels; assay type: in vivo, C57/BL6 mice
Method: After reperfusion for 24 h, kidney tissues were harvested, homogenized in 10 volumes of 0.1 M HCl, and centrifuged for 10 min at 12,000 rpm. cAMP levels in kidney tissues and serum were measured using a cAMP Complete ELISA kit (Enzo Life Science, Farmingdale, NY). AMP and adenosine in kidney tissue were assessed by Agilent 6410 LC-MS/MS. Serum adenosine was measured using an assay kit (Abnova, Walnut, CA).

[3] = test system: mice with ischemic AKI (bilateral renal IRI); test: Renal IRI model: oxidative stress (MDA in kidney tissue); assay type: in vivo, C57/BL6 mice; settings: single pre-IRI dose; vehicle peaked at 2 h at 48%
Method: Reactive oxygen species (ROS) levels were determined by measurement of malondialdehyde (MDA), the end product of lipid peroxidation in kidney lysates. Free MDA reacts with thiobarbituric acid (TBA) at 95° C. to generate an MDA-TBA adduct, which can be quantified colorimetrically at a wavelength of 532 nm. MDA levels were measured in kidney lysates using a lipid peroxidation (MDA) assay kit (Abcam, Cambridge, UK). Results were corrected for total protein level and are expressed as […].

[4] = test system: mice with ischemic AKI (bilateral renal IRI); test: Renal IRI model: renal and serum PGE2 after a single pre-IRI dose; assay type: in vivo, C57/BL6 mice
Method: After reperfusion for 24 h, kidney tissues (˜20 mg) were homogenized in cold PBS containing indomethacin (10 μg/mL) and then centrifuged for 10 min at 12,000 rpm. Protein concentrations of supernatant were determined by BCA assay (ThermoFisher Scientific, Rockford, IL). The PGE2 level was measured using a PGE2 ELISA kit (R&D Systems, Minneapolis, MN) in triplicate. PGE2 levels were expressed as nanograms of PGE2 per milligram of protein. Renal function was assessed by determining the serum levels of blood urea nitrogen (BUN; Abcam), serum creatinine (Agilent 6410 LC-MS/MS, Agilent, Santa Clara, CA), lipocalin-2 (R&D Systems), and kidney injury molecule-1 (KIM-1; R&D Systems) after reperfusion for 24 h. Measurement of serum creatinine was by HPLC. Serum creatinine was assessed using an Agilent 6410 LC-MS/MS system coupled with an Agilent 1200 series HPLC system (Agilent). The sample preparation for serum creatinine was that 50 μL of serum samples were mixed with 100 μL of acetonitrile that contained creatinine-d3 as an internal standard (5 μg/mL). The mixture was centrifuged at 13,000 rpm for 10 min after vigorous vortex, and 1 μL of supernatant was then injected into the LC-MS/MS system. The chromatography separation was performed on a Hypersil GOLD C18 column (150×2.1 mm, 3 m, Thermo Scientific) using a mobile phase of 0.1% formic acid solution and acetonitrile [70:30 (vol/vol)]. The flow rate was 0.2 mL/min. Electrospray ionization was performed in the positive ion mode. The capillary voltage was set at 4,000 V. Nitrogen as the nebulizing gas was set at 15 psi, and the drying gas temperature was set at 300° C., with a flow rate of 6 L/min. The multiple-reaction monitoring mode using specific precursor/production transition was used for quantification. Detection of ions was performed by monitoring m/z 114.1→44.1 for creatinine and 117.1→77.1 for creatinine-d3. The collision energies were 10 and 15 eV for creatinine and creatinine-d3, respectively. The peak areas for all analytes were integrated automatically using Agilent Mass Hunter Analysis software (version B.01.04).

[5] = test system: PGE2 levels in kidney tissue; test: Renal PGE2 levels in normal mice 1 h after injection (Example 2); assay type: in vivo
Method: Next, 20 mg kidney tissue was homogenized in […] cold PBS containing indomethacin (10 μg/mL) using a tissue homogenizer. The suspension was sonicated in an ice-water bath for 1 min using cycles of 10 s of sonication with 10 s of cooling, and then they were centrifuged for 10 min at 12,000 rpm. The supernatant was collected for PGE-2 assay. Protein concentrations were determined by bicinchoninic acid assay (Cat. #23225, Thermo Scientific). The PGE2 level in the supernatant was measured using a PGE2 enzyme-linked immunosorbent assay kit (R&D Systems, Minneapolis, MN, USA) in triplicate. PGE-2 levels were expressed as ng of PGE2/mg protein.

[6] = test system: contrast-induced acute kidney injury (CIAKI) mice; test: CIAKI mouse model: renal blood flow (laser Doppler flux); assay type: in vivo, C57/BL6 mice; settings: CM + drug, 48 h after CM
Method: Total RBF was assessed by measuring renal Doppler flux using noninvasive laser Doppler flowmetry (PeriFlux System 5000, Perimed AB, Sweden). Laser Doppler probes were placed on the kidney surface to measure the renal flux. The flux was measured 48 h after CM administration. The relative increase represented the percentage increase in renal blood flow from baseline to peak for each test. Statistical significance was set as p<0.05.

Which “endogenous renal PGE2 (peak)” value ([1]; 1 h after intraperitoneal 5 mg/kg) does the source give for `CCCC[S+]([O-])c1sc2nc(-c3cccs3)cc(-c3ccccc3)c2c1N` (stereo not shown) [SW033291] here?
The value was “tripling”.

And the “renal PGE2” value ([1]; 3 h after intraperitoneal injection of 2.5 or 5 mg/kg)?
Its value is “dose-dependent increase”.

And the “IRI-induced decrease of adenosine in the kidney” value ([2]; 24 h after IRI)?
Its value is “reversed”.

And the “AMP in kidney tissue” value ([2]; 24 h post-IRI)?
The value was “increased levels”.

What about the serum adenosine ([2]; 24 h post-IRI) of the same compound?
The serum adenosine was “Increased”.

What about the “renal cAMP” value ([2]; 24 h post-IRI, vs sham mice) of the same compound?
Its value is “elevated over sham mice”.

And the “MDA increase above baseline after renal IRI” value [3]?
Its value is 14%.

What about the “renal PGE2 levels” value ([4]; 24 h, single pretreatment dose) of the same compound?
Its value is “significantly decreased”.

What about the “serum PGE2 levels” value ([4]; 24 h, single pretreatment dose) of the same compound?
Its value is “significantly decreased”.

What about the “post-IRI peaks of renal PGE2 (immediate and 14 h)” value ([4]; single pre-IRI dose) of the same compound?
Its value is “substantially block”.

And the “increase of renal PGE2 vs vehicle-administered normal mice” value ([5]; 1 h after administration, average)?
The value was “three times”.

And the “renal PGE2 levels” value ([5]; normal mice, 1 h after ip 5 mg/kg)?
Its value is 29.71 ± 2.79 ng/mg.

What about the “RBF (renal Doppler flux)” value [6] of the same compound?
The value was 635.2±11.10.
